Results published in US20240294569A1, “MODULATORS OF SORTILIN ACTIVITY” (Insusense ApS, priority 2021, published 2024).
Peptide text beside a SMILES is read from it.

Target: T1, hSortilin (Homo sapiens, UniProt Q99523)
T1 sequence (Q99523 78-831): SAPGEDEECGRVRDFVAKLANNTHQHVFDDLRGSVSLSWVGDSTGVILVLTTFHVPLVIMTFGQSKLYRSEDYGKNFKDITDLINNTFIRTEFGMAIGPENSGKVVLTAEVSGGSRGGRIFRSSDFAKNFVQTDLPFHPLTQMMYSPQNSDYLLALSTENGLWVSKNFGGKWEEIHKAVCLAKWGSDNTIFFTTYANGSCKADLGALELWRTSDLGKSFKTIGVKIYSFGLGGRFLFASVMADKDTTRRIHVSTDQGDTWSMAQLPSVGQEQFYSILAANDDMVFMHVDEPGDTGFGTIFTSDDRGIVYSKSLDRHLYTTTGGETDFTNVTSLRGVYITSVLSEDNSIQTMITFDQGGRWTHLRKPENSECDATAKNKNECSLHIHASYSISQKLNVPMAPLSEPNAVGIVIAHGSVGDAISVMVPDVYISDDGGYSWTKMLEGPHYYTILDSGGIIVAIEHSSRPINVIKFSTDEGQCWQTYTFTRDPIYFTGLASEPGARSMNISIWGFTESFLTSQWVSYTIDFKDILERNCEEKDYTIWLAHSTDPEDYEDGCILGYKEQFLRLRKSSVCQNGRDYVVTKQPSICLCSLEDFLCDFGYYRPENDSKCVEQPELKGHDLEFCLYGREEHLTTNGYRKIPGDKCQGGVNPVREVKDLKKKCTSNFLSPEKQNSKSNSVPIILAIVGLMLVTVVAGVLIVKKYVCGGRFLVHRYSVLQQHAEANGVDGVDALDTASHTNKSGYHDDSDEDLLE
Assay: Neurotensin scintillation proximity assay (displacement of [3H]-neurotensin binding)
Conditions: displacement of 5 nM [3H]-neurotensin from 150 nM 6his-Sortilin; average of at least 2 determinations; read-out: IC50 [3H]Neurotensin SPA
Description: The data of exemplified compounds of the invention tested in a Neurotensin (NTS) scintillation proximity assay (SPA). NTS, which is a 13 amino acid neuropeptide, is a sortilin ligand. The IC50 is a measure of the amount of the compound required to inhibit the binding of NTS to sortilin by 50%.
Compound affinity was determined by measuring the displacement of [^3H]-neurotensin binding to hSortilin in SPA format. Total volume of 40 μl in 50 mM HEPES pH 7.4 assay buffer containing 100 mM NaCl, 2.0 mM CaCl2, 0.1% BSA and 0.1% Tween-20. Compound pre-incubation for 30 minutes at room temperature with 150 nM of 6his-Sortilin before 5 nM [3H]-Neurotensin and Ni chelate imaging beads (Perkin Elmer) were added, after 6 hours the plate was read on a ViewLux with 360 s exposure time. Dose-response evaluation of compounds was performed with 8 concentrations of drugs (covering 3 decades). IC50 values were calculated by nonlinear regression using the sigmoid concentration-response (variable slope) using CDD Vault software. All values reported are average of at least 2 determinations.

Row | IC50 [nM] | Structure (SMILES)
1 | 3170 | CC[C@H](C)[C@H](NC(=O)[C@H](Cc1ccc(O)cc1)NC(=O)[C@@H]1CCCO1)C(=O)N[C@@H](CCC(F)(F)F)C(=O)O [Example 1, (S)-5,5,5-Trifluoro-2-((2S,3S)-2-((S)-3-(4-hydroxyphenyl)-2-((S)-tetrahydrofuran-2-carboxamido)propanamido)-3-methylpentanamido)pentanoic acid]
2 | 2860 | CC[C@H](C)[C@H](NC(=O)[C@H](Cc1ccc(O)cc1)NC(=O)[C@H]1CCCO1)C(=O)N[C@@H](CCC(F)(F)F)C(=O)O [Example 2, (2S)-5,5,5-trifluoro-2-[(2S,3S)-2-[(S)-3-(4-hydroxyphenyl)-2-{[(2R)-oxolan-2-yl]formamido}propanamido]-3-methylpentanamido] pentoic acid]
3 | 1110 | CC[C@H](C)[C@H](NC(=O)[C@H](Cc1ccc(O)cc1)NC(C)=O)C(=O)N[C@@H](CCC(F)(F)F)C(=O)O [Example 3, (S)-2-((2S,3S)-2-((S)-2-Acetamido-3-(4-hydroxyphenyl)propanamido)-3-methylpentanamido)-5,5,5-trifluoropentanoic acid]
4 | 1690 | CC[C@H](C)[C@H](NC(=O)[C@H](Cc1ccc(O)cc1)NC(=O)[C@H]1CN(C(C)=O)CCO1)C(=O)N[C@@H](CCC(F)(F)F)C(=O)O [Example 4, (S)-2-((2S,3S)-2-((S)-2-((R)-4-Acetylmorpholine-2-carboxamido)-3-(4-hydroxyphenyl)propanamido)-3-methylpentanamido)-5,5,5-trifluoropentanoic acid]
5 | 270 | CC(C)(C)CC[C@H](NC(=O)[C@H](Cc1ccccn1)NC(=O)[C@H](Cc1ccc(O)cc1)NC(=O)[C@@H]1CCCN1)C(=O)O [Example 5, (S)-2-((S)-2-((S)-3-(4-Hydroxyphenyl)-2-((S)-pyrrolidine-2-carboxamido)propanamido)-3-(pyridin-2-yl)propanamido)-5,5-dimethylhexanoic acid] (HELM PEPTIDE1{P.Y.[O=C([C@H](Cc1ccccn1)N[*:1])[*:2]].[CC(C)(C)CC[C@H](N[*:1])C(=O)O]}$$$$V2.0)
6 | 90 | CC(C)(C)CC[C@H](NC(=O)[C@H](Cc1cccnc1)NC(=O)[C@H](Cc1ccc(O)cc1)NC(=O)[C@@H]1CCCN1)C(=O)O [Example 6, (S)-2-((S)-2-((S)-3-(4-Hydroxyphenyl)-2-((S)-pyrrolidine-2-carboxamido)propan amido)-3-(pyridin-3-yl)propanamido)-5,5-dimethylhexanoic acid] (HELM PEPTIDE1{P.Y.[O=C([C@H](Cc1cccnc1)N[*:1])[*:2]].[CC(C)(C)CC[C@H](N[*:1])C(=O)O]}$$$$V2.0)
7 | 370 | Cn1cnc(C[C@H](NC(=O)[C@H](Cc2ccc(O)cc2)NC(=O)[C@@H]2CCCN2)C(=O)N[C@@H](CCC(C)(C)C)C(=O)O)c1 [Example 7, (S)-2-((S)-2-((S)-3-(4-Hydroxyphenyl)-2-((S)-pyrrolidine-2-carboxamido)propan amido)-3-(1-methyl-1H-imidazol-4-yl)propanamido)-5,5-dimethylhexanoic acid] (HELM PEPTIDE1{P.Y.[Cn1cnc(C[C@H](N[*:1])C(=O)[*:2])c1].[CC(C)(C)CC[C@H](N[*:1])C(=O)O]}$$$$V2.0)
8 | 200 | CC(C)(C)CC[C@H](NC(=O)[C@H](Cc1ccncc1)NC(=O)[C@H](Cc1ccc(O)cc1)NC(=O)[C@@H]1CCCN1)C(=O)O [Example 8, (S)-2-((S)-2-((S)-3-(4-Hydroxyphenyl)-2-((S)-pyrrolidine-2-carboxamido)propan amido)-3-(pyridin-4-yl)propanamido)-5,5-dimethylhexanoic acid] (HELM PEPTIDE1{P.Y.[O=C([C@H](Cc1ccncc1)N[*:1])[*:2]].[CC(C)(C)CC[C@H](N[*:1])C(=O)O]}$$$$V2.0)
9 | 140 | CC(C)(C)CC[C@H](NC(=O)[C@H](Cc1ccsc1)NC(=O)[C@H](Cc1ccc(O)cc1)NC(=O)[C@@H]1CCCN1)C(=O)O [Example 9, (S)-2-((S)-2-((S)-3-(4-Hydroxyphenyl)-2-((S)-pyrrolidine-2-carboxamido)propan amido)-3-(thiophen-3-yl)propanamido)-5,5-dimethylhexanoic acid] (HELM PEPTIDE1{P.Y.[O=C([C@H](Cc1ccsc1)N[*:1])[*:2]].[CC(C)(C)CC[C@H](N[*:1])C(=O)O]}$$$$V2.0)
10 | 90 | CC(C)(C)CC[C@H](NC(=O)[C@H](Cc1cscn1)NC(=O)[C@H](CC(N)=O)NC(=O)[C@@H]1CCCN1)C(=O)O [Example 10, (S)-2-((S)-2-((S)-4-Amino-4-oxo-2-((S)-pyrrolidine-2-carboxamido)butan-amido)-3-(thiazol-4-yl)propanamido)-5,5-dimethylhexanoic acid] (HELM PEPTIDE1{P.N.[O=C([C@H](Cc1cscn1)N[*:1])[*:2]].[CC(C)(C)CC[C@H](N[*:1])C(=O)O]}$$$$V2.0)
11 | 60 | CC(C)(C)CC[C@H](NC(=O)[C@H](Cc1cscn1)NC(=O)[C@H](CCC(N)=O)NC(=O)[C@@H]1CCCN1)C(=O)O [Example 11, (S)-2-((S)-2-((S)-5-Amino-5-oxo-2-((S)-pyrrolidine-2-carboxamido)pentan amido)-3-(thiazol-4-yl)propanamido)-5,5-dimethylhexanoic acid] (HELM PEPTIDE1{P.Q.[O=C([C@H](Cc1cscn1)N[*:1])[*:2]].[CC(C)(C)CC[C@H](N[*:1])C(=O)O]}$$$$V2.0)
12 | 70 | CC(C)(C)CC[C@H](NC(=O)[C@H](Cc1cscn1)NC(=O)[C@H](Cc1ccc(O)cc1)NC(=O)[C@@H]1CCCN1)C(=O)O [Example 12, (S)-2-((S)-2-((S)-3-(4-Hydroxyphenyl)-2-((S)-pyrrolidine-2-carboxamido)propan amido)-3-(thiazol-4-yl)propanamido)-5,5-dimethylhexanoic acid] (HELM PEPTIDE1{P.Y.[O=C([C@H](Cc1cscn1)N[*:1])[*:2]].[CC(C)(C)CC[C@H](N[*:1])C(=O)O]}$$$$V2.0)
13 | 160 | CC(C)(C)CC[C@H](NC(=O)[C@H](CN1CCOCC1)NC(=O)[C@H](Cc1ccc(O)cc1)NC(=O)[C@@H]1CCCN1)C(=O)O [Example 13, (S)-2-((S)-2-((S)-3-(4-Hydroxyphenyl)-2-((S)-pyrrolidine-2-carboxamido)propan amido)-3-morpholinopropan-amido)-5,5-dimethylhexanoic acid] (HELM PEPTIDE1{P.Y.[O=C([C@H](CN1CCOCC1)N[*:1])[*:2]].[CC(C)(C)CC[C@H](N[*:1])C(=O)O]}$$$$V2.0)
14 | 60 | CC(C)(C)CC[C@H](NC(=O)[C@H](Cc1c[nH]c2ccccc12)NC(=O)[C@H](Cc1ccc(O)cc1)NC(=O)[C@@H]1CCCN1)C(=O)O [Example 14, (S)-2-((S)-2-((S)-3-(4-Hydroxyphenyl)-2-((S)-pyrrolidine-2-carboxamido)propan amido)-3-(1H-indol-3-yl)propanamido)-5,5-dimethylhexanoic acid] (HELM PEPTIDE1{P.Y.W.[CC(C)(C)CC[C@H](N[*:1])C(=O)O]}$$$$V2.0)
15 | 80 | CC[C@H](C)[C@H](NC(=O)CNC(=O)[C@@H]1CCCN1)C(=O)N[C@@H](CCC(C)(C)C)C(=O)O [Example 16, (2S)-5,5-Dimethyl-2-((3S)-3-methyl-2-(2-((S)-pyrrolidine-2-carboxamido)acetamido)pentanamido) hexanoic acid] (HELM PEPTIDE1{P.G.I.[CC(C)(C)CC[C@H](N[*:1])C(=O)O]}$$$$V2.0)
16 | 70 | CC[C@H](C)[C@H](NC(=O)[C@H](C)NC(=O)[C@@H]1CCCN1)C(=O)N[C@@H](CCC(C)(C)C)C(=O)O [Example 17, (2S)-5,5-Dimethyl-2-((3S)-3-methyl-2-((S)-2-((S)-pyrrolidine-2-carboxamido)propan amido)pentanamido) hexanoic acid] (HELM PEPTIDE1{P.A.I.[CC(C)(C)CC[C@H](N[*:1])C(=O)O]}$$$$V2.0)
17 | 110 | CC[C@H](C)[C@H](NC(=O)[C@H](Cc1ccc(O)cc1)NC(=O)[C@H]1CNCCN1)C(=O)N[C@@H](CCC(C)(C)C)C(=O)O [Example 18, (S)-2-((2S,3S)-2-((S)-3-(4-Hydroxyphenyl)-2-((R)-piperazine-2-carboxamido)propan amido)-3-methylpentanamido)-5,5-dimethylhexanoic acid] (HELM PEPTIDE1{[O=C([C@H]1CNCCN1)[*:2]].Y.I.[CC(C)(C)CC[C@H](N[*:1])C(=O)O]}$$$$V2.0)
